The results in this text go back to patent US20210255193A1, “LYSINE REACTIVE PROBES AND USES THEREOF” (The Scripps Research Institute, priority 2017, published 2021).

This assay concerns the target T1, KIAA1033 WASH complex subunit 7 (Homo sapiens, UniProt Q2M389).
T1 construct: isoTOP-ABPP experiments performed in cell lysates (in vitro); endogenous in cells; host or cells: soluble proteome of human cancer cell lines (MDA-MB-231; Ramos and Jurkat also prepared)
T1 sequence (Q2M389 1-1173): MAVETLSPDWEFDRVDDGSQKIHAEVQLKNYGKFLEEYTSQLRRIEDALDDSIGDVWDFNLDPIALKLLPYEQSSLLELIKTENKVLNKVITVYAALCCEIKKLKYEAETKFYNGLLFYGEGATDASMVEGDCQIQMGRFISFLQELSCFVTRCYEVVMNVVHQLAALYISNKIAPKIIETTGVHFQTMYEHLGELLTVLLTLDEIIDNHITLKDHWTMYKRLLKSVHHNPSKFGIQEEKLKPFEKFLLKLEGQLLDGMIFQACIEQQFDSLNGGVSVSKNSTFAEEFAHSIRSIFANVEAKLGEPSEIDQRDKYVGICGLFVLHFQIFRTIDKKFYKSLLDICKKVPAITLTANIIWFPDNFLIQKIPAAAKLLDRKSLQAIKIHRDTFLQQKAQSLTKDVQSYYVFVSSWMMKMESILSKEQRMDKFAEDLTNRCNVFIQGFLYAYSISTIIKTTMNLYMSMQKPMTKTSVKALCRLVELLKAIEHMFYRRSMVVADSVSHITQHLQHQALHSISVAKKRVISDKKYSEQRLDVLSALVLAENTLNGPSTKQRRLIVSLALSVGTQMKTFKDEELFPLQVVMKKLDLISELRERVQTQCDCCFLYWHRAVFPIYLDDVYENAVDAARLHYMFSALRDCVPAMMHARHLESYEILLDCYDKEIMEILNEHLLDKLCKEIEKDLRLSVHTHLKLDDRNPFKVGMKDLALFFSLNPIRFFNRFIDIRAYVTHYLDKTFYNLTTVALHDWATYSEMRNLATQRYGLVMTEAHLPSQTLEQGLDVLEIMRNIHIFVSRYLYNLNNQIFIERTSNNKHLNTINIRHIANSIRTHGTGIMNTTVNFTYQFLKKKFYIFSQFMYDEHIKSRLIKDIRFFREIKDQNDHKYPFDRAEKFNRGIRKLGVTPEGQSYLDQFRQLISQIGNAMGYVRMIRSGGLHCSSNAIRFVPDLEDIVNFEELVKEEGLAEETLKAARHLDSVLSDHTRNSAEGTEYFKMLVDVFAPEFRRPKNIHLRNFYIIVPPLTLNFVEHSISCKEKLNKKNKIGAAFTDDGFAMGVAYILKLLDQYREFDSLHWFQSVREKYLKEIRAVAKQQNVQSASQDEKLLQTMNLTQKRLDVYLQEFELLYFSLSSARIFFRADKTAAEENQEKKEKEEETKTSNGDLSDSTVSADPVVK
Kind of assay: competitive isoTOP-ABPP. It is filed as binding. Conditions: for R value (DMSO/fragment) for probe 1 labeling: Q2M389_K302; for R value (DMSO/fragment) for probe 1 labeling / isoTOP-ABPP reactivity ratio at lysine Q2M389_K302 / isoTOP-ABPP ratio (R) at liganded lysine Q2M389_K302: 50 uM, in vitro; for R value (DMSO/fragment) for probe 1 labeling / isoTOP-ABPP reactivity ratio at lysine Q2M389_K302: 231 sol; for isoTOP-ABPP ratio (R) at liganded lysine Q2M389_K302: sol, 231. An outline of the steps:
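Here, isoTOP-ABPP measures loss of STP-alkyne labeling at individual lysines after fragment exposure in lysate. Activated esters are dosed at 50 μM, guanidinylating agents at 100 μM; the probe follows at 0.1 mM for 1 h. R ≥4 marks a liganded lysine.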

Consider `O=C(CCc1cn(-c2ccccc2)nc1-c1ccccc1)Oc1c(F)c(F)c(F)c(F)c1F` [fragment 19, Pentafluorophenyl 3-(1,3-diphenyl-1H-pyrazol-4-yl)propanoate], for which the “R value (DMSO/fragment) for probe 1 labeling” value (“R value (DMSO/fragment)” below) is listed as 0.8.
`O=C(Oc1c(F)c(F)c(F)c(F)c1F)C(c1ccccc1)c1ccccc1` [fragment 20, Pentafluorophenyl 2,2-diphenylacetate]: the “R value (DMSO/fragment)” value is recorded as 0.9.
For `Cn1cc(CC(=O)Oc2c(F)c(F)c(F)c(F)c2F)c2ccccc21` [fragment 22, Pentafluorophenyl 2-(1-methyl-1H-indol-3-yl)acetate], the “R value (DMSO/fragment)” value is on record as 3.6.
Still for that read-out and setting: then `COc1cc(CCC(=O)Oc2c(F)c(F)c(F)c(F)c2F)cc(OC)c1OC` [fragment 23, Pentafluorophenyl 3-(3,4,5-trimethoxyphenyl)propanoate], with 1.5.
Turning to `O=C(Oc1c(F)c(F)c(F)c(F)c1F)C1CCN(C(=O)OCc2ccccc2)CC1` [fragment 24, 1-Benzyl 4-(pentafluorophenyl) piperidine-1,4-dicarboxylate], the “isoTOP-ABPP reactivity ratio at lysine Q2M389_K302” value turned out to be 1.0.
Same read-out and setting: then `O=C(CCc1coc2cc(F)ccc2c1=O)Oc1c(F)c(F)c(F)c(F)c1F` [fragment 26, Pentafluorophenyl 3-(7-fluoro-4-oxo-4H-chromen-3-yl)propanoate], with 1.8; and `O=C(CCc1cn(-c2ccccc2)nc1-c1ccccc1)Oc1ccc([N+](=O)[O-])cc1[N+](=O)[O-]` [fragment 29, 2,4-Dinitrophenyl 3-(1,3-diphenyl-1H-pyrazol-4-yl)propanoate], with 1.1; and `O=C(Oc1ccc([N+](=O)[O-])cc1[N+](=O)[O-])C(c1ccccc1)c1ccccc1` [fragment 30, 2,4-Dinitrophenyl 2,2-diphenylacetate], with 1.6.
For `COc1cc(CCC(=O)Oc2ccc([N+](=O)[O-])cc2[N+](=O)[O-])cc(OC)c1OC` [fragment 33, 2,4-Dinitrophenyl 3-(3,4,5-trimethoxyphenyl)propanoate], the “isoTOP-ABPP reactivity ratio at lysine Q2M389_K302” value worked out at 0.9.
As for `O=C(Oc1ccc([N+](=O)[O-])cc1[N+](=O)[O-])c1ccc2ccccc2n1` [fragment 35, 2,4-Dinitrophenyl quinoline-2-carboxylate], the “isoTOP-ABPP ratio (R) at liganded lysine Q2M389_K302” value (“isoTOP-ABPP ratio (R)” for short) came to 1.4.
In the case of `O=C(CCc1coc2cc(F)ccc2c1=O)Oc1ccc([N+](=O)[O-])cc1[N+](=O)[O-]` [fragment 36, 2,4-Dinitrophenyl 3-(7-fluoro-4-oxo-4H-chromen-3-yl)propanoate], the “isoTOP-ABPP ratio (R)” value came to 1.2.
In the case of `O=C(Oc1ccc([N+](=O)[O-])cc1[N+](=O)[O-])c1ccc(-c2ccccc2)cc1` [fragment 37, 2,4-Dinitrophenyl [1,1′-biphenyl]-4-carboxylate], the “isoTOP-ABPP ratio (R)” value was 0.9.
Consider `O=C(Oc1ccc([N+](=O)[O-])cc1[N+](=O)[O-])c1ccc(Oc2ccccc2)cc1` [fragment 39, 2,4-Dinitrophenyl 4-phenoxybenzoate], for which the “isoTOP-ABPP ratio (R)” value was 1.2.
On to `O=C(Oc1ccc([N+](=O)[O-])cc1[N+](=O)[O-])c1ccccc1Nc1cccc(C(F)(F)F)c1` [fragment 40, 2,4-Dinitrophenyl 2-((3-(trifluoromethyl)phenyl)amino)benzoate], for which the “isoTOP-ABPP ratio (R)” value was found to be 0.9.
In the case of `CC(C)(C)OC(=O)NCCCC(=O)Oc1ccc([N+](=O)[O-])cc1[N+](=O)[O-]` [fragment 41, 2,4-Dinitrophenyl 4-((tert-butoxycarbonyl)amino)butanoate], the “isoTOP-ABPP ratio (R)” value is reported as 1.5.
Turning to `N#Cc1ccc(C(=O)Oc2ccc([N+](=O)[O-])cc2[N+](=O)[O-])cc1` [fragment 44, 2,4-Dinitrophenyl 4-cyanobenzoate], where the note is “50 uM_231_sol_in vitro”, the “isoTOP-ABPP ratio, lysine Q2M389_K302” value is 1.3.
For the compound `O=C(CCc1ccc2c(c1)OCO2)Oc1ccc([N+](=O)[O-])cc1[N+](=O)[O-]` [fragment 45, 2,4-Dinitrophenyl 3-(benzo[d][1,3]dioxol-5-yl)propanoate], the “isoTOP-ABPP ratio, lysine Q2M389_K302” value (50 uM_231_sol_in vitro) came to 1.2.
For `CC(C)(C)OC(=O)N=C(NC(=O)OC(C)(C)C)n1cccn1` [fragment 50, reference compound], the “isoTOP-ABPP ratio, lysine Q2M389_K302” value (100 uM_231_sol_in vitro) is reported as 5.3.
On to `NC(=O)c1cc(C(F)(F)F)cc(C(F)(F)F)c1` [fragment 51, reference compound], for which the “isoTOP-ABPP ratio, lysine Q2M389_K302” value (50 uM_231_sol_in vitro) turned out to be 1.5.
